{"source": "paper PMC7495477", "about": "“IMPROvER: the Integral Membrane Protein Stability Selector” (Scientific Reports, 2020)", "biological_target": "T1, ClPPase (membrane-bound pyrophosphatase from Clostridium leptum) ([Clostridium] leptum, UniProt A7VNH8)", "T1 construct": "gene hppA; N-terminal 8xHis-tag, superfolder GFP and TEV site kept; synthetic gene in pDDGFP; expressed in S. cerevisiae FGY217 membranes; about 700 residues; dimer", "T1 sequence (A7VNH8 1-700)": "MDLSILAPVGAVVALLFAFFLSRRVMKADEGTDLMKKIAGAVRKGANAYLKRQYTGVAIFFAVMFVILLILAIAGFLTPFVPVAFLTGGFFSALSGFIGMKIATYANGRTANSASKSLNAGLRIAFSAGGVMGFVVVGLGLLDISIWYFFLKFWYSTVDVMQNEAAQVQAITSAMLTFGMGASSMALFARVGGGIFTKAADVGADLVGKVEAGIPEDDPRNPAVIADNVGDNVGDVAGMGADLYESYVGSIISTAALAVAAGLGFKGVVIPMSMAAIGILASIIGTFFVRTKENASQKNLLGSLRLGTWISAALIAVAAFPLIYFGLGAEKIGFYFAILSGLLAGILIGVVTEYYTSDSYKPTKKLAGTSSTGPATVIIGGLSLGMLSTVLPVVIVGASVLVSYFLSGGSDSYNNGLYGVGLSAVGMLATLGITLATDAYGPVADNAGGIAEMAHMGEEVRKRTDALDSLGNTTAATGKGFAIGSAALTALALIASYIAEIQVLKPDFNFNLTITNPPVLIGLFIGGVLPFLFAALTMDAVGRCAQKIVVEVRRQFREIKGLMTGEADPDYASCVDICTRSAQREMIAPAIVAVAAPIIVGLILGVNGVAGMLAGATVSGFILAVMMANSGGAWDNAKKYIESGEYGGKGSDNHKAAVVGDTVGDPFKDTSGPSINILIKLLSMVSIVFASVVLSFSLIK", "assay": "colorimetric phosphate release assay on yeast membranes", "format": "biochemical", "conditions": "tris-HCl pH 8, MgCl2, KCl, NaCl, NaF, gramicidin, 10 uL of 2 mM tetrabasic sodium pyrophosphate in 50 uL, 30 C, 10 min"}
{"compound": "O=P(O)(O)OP(=O)(O)O", "note": "[PPi]", "values": [{"measurement": "colorimetric phosphate release assay on yeast membranes", "value": "The hydrolytic activity of wild-type and variant ClPPase in the membrane was assessed"}]}
